From US8367666B2 (priority 2004, dated 2013)
Read-outs that look alike come from different tables or passages of the source.

Legend:
[1] = target: T1, CB2 receptor (Homo sapiens, UniProt P34972); assay: Human cannabinoid receptor bonding inhibition test ([3H]CP55940), CB2; type: binding; design: expressed in transfected cells; membrane fraction
[2] = target: T1, CB2 receptor; assay: cAMP formation inhibition experiment through a cannabinoid receptor (forskolin stimulation), CB2; type: cell-based; design: expressed in transfected cells; host or cells: CHO cells
[3] = target: T2, CB1 receptor (Homo sapiens, UniProt P21554); assay: cAMP formation inhibition experiment through a cannabinoid receptor (forskolin stimulation), CB1; type: cell-based; design: expressed in transfected cells; host or cells: CHO cells
T2 sequence (P21554 whole entry): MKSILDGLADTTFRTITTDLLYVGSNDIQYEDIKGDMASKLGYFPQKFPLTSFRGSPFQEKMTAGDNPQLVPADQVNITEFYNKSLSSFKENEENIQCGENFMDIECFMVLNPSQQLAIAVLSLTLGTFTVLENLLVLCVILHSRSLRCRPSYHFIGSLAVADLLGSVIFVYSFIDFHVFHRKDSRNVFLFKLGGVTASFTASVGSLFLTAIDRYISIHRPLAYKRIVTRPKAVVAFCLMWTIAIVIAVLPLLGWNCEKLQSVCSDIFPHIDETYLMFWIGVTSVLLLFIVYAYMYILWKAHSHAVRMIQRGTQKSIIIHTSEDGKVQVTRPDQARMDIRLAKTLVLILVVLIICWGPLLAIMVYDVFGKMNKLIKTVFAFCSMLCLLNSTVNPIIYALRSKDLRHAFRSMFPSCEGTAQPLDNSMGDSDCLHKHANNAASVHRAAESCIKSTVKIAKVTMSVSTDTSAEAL
Method: A compound being tested was added in the CHO cell which had mad human CB1 or CB2 receptor reveal and incubated for 15 minutes, and then forskolin (the final concentration 4 μM, and manufactured by SIGMA Corp.) was added and the mixture was incubated for 20 minutes. After the reaction had been stopped by adding 1M hydrochloric acid, the amount of cAMP in the supernatant was measured with the use of Cyclic AMP kit (made by the CIS Diagnostic Corp.).

[4] = target: T2, CB1 receptor; assay: Human cannabinoid receptor bonding inhibition test ([3H]CP55940), CB1; type: binding; design: expressed in transfected cells; membrane fraction
[5] = tested on: scratching action induced by Compound 48/80; assay: Anti-pruritic activity test by application (Compound 48/80 scratching); type: in vivo, mouse (Crj:CD-1 (ICR)); conditions: Mus musculus, topical, read-out: Itching inhibition ratio % (Concentration %)
Method: 1) Preparation of the compound and the reagent: The compound being tested was dissolved in acetone (SIGMA). Compound 48/80 (SIGMA) was dissolved in physiological saline (m by Otsuka Pharmaceutical Co., Ltd.) so as to be 60 μg/mL.
2) Animals: Female Crj: CD-1 (ICR) mice of 6 to 10 age in week (Japan Charles Liver) were used as laboratory animals. The animals were fed in the barrier breeding room where […] in room temperature, 30 to 70% in humidity, and the light and shade condition existed every 12 hours and feed (CE-2: Japan Crea) and the drinking water were freely taken. The hair of dorsa (from the cervical region of the back to the center of the back) of the animals were cut with a hair clipper two days or more before the anti-pruritic activity is evaluated, those with no wound, rubefaction, and thickening of the skin on the dehaired part were chosen and supplied to the experiment on the day of the evaluation. 3) Evaluation procedures: The acetone solution of the compound being tested was applied by 50 μL on the dehaired parts of the mice with a pipeter. On the mice of the control group, 50 μL of acetone was applied. The 15 minutes later, 50 μL (corresponding to 3 μg) of Compound 48/80 solution was injected intradermally in the compound applied parts with the use of a injector (Terumo Corporation), the mice were individually put in five observation cages made of acrylate resin at once, and the scratching action (action of scratching the injection part by the hind leg) frequency during 30 minutes was measured. The evaluation was carried out in one group of 5 to 7 mice. 4) Data processing: The experiment results were shown by the mean values. The test of the significant difference of the compound applying group to the control group was conducted with Welch's t-test, and p<0.05 was assumed to be significant.

[6] = read-out: Agonist activity (nM) CB1
[7] = [3H]CP55940 0.5 nM, membrane preparation of CHO cells expressing CB1, Ki calculated from IC50, read-out: Binding activity (nM) CB1

T1 sequence (P34972 whole entry): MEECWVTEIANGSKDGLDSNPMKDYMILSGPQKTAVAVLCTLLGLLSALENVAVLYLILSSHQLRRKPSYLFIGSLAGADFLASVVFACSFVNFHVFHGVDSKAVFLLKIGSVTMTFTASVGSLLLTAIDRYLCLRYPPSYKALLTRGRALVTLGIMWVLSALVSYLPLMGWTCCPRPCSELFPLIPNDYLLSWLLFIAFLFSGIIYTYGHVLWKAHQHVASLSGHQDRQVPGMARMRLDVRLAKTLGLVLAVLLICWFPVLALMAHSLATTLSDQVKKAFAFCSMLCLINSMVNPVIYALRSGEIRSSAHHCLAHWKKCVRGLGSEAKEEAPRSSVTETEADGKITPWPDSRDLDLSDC

SMILES | Ki [1] [nM] | IC50 [2] [nM] | IC50 [3, 6] [nM] | Ki [4] [nM] | inhibition in vivo at 0.5 % [5] [%] | also measured
CC(C)(NC(=O)c1cc2c(n(CC3CCCCC3)c1=O)CCCCCC2)C(N)=O [Compound I-002] | 7.1 | 4.4 | 11 | 48 |  | inhibition in vivo at 2.5 % [5]: 68%
CCc1c(C)cc(C(=O)N[C@H](C(=O)NC(CO)CO)C(C)(C)C)c(=O)n1CC1CCCCC1 [Compound I-038] | < 2 | < 2 | 34 | 7.1 |  | inhibition in vivo at 3 % [5]: 67%
CC(C)(NC(=O)c1cc2c(n(CC3CCCCC3)c1=O)CCCCCC2)C(=O)N1CCC(NS(=O)(=O)C(C)(C)C)CC1 [Compound I-048] | 2.6 | 17 | 328 | 118 |  | inhibition in vivo at 3 % [5]: 58%
CC(C)(NC(=O)c1cc2c(n(CC3CCCCC3)c1=O)CCCCCC2)C(=O)NCC(N)=O [Compound I-054] |  | 15 | 51 |  |  | Ki ([1]; [3H]CP55940 0.5 nM, membrane preparation of CHO cells expressing CB2, Ki calculated from IC50, read-out: Binding activity (nM) CB2): 6 nM; Ki [4, 7]: 11 nM; inhibition in vivo at 2 % [5]: 63%
COC(=O)C(C)(C)NC(=O)c1cc2c(n(CC3CCCCC3)c1=O)CCCCCC2 [Compound I-084, methyl 2-[(1-cyclohexylmethyl-2-oxo-1,2,5,6,7,8,9,10-octahydro-cycloocta[b]pyridine-3-carbonyl]-amino}-2-methyl-propionate] | < 2 | < 2 | < 2 | < 2 |  | inhibition in vivo at 0.1 % [5]: 60%
CC[C@@H](C)[C@H](NC(=O)c1cc(C)c(C)n(CC2CCCCC2)c1=O)C(=O)OC [Compound I-089] | < 2 | < 2 | < 2 | < 2 | 65 | 
COC(=O)[C@@H](NC(=O)c1cc(C)c(C)n(Cc2ccc(F)cc2)c1=O)C(C)C [Compound I-094] | < 2 | < 2 | 9 | < 2 | 60 | 
CCCCn1c2c(cc(C(=O)NC3(C(=O)OC)CCCCC3)c1=O)CCCCCC2 [Compound I-124] | < 2 |  | < 2 | 3.6 | 49 | 
CCCc1c(CC)cc(C(=O)N[C@H](C(=O)OC)C(C)C)c(=O)n1CC1CCCCC1 [Compound I-133] | < 2 |  | 4 | 5 | 56 | 
CCc1c(C)cc(C(=O)N[C@H](C(=O)OC)C(C)C)c(=O)n1CC1CCCCC1 [Compound I-134] | < 2 |  | < 2 | < 2 | 91 | 
CCc1c(C)cc(C(=O)N[C@H](C(=O)OC)C(C)C)c(=O)n1Cc1ccc(F)cc1 [Compound I-196] | < 2 |  | < 2 | < 2 | 47 | 
CCCCn1c2c(cc(C(=O)N[C@H](C(=O)OC)C(C)(C)C)c1=O)CCCCCC2 [Compound I-203] | < 2 |  | < 2 | < 2 | 86 | 
CCCCn1c(CCC)c(CC)cc(C(=O)N[C@H](C(=O)OC)C(C)(C)C)c1=O [Compound I-211] | < 2 |  | < 2 | 2.4 |  | inhibition in vivo at 1.5 % [5]: 70%
CCc1c(C)cc(C(=O)N[C@H](C(=O)OC)C(C)(C)C)c(=O)n1CC1CCCCC1 [Compound I-252] | < 2 |  | < 2 | < 2 |  | inhibition in vivo at 1.5 % [5]: 96%
COC(=O)[C@@H](NC(=O)c1cc2c(n(Cc3ccc(F)cc3)c1=O)CCCCCC2)C(C)C [Compound I-253] | < 2 |  | < 2 | < 2 |  | inhibition in vivo at 1.5 % [5]: 70%
COC(=O)C(C)(C)NC(=O)c1cc2c(n(Cc3ccc(F)cc3)c1=O)CCCCCC2 [Compound I-255] | < 2 |  | < 2 | 2.1 |  | inhibition in vivo at 1.5 % [5]: 93%
COC(=O)[C@@H](NC(=O)c1cc2c(n(Cc3ccc(F)cc3)c1=O)CCCCCC2)C(C)(C)C [Compound I-263] | < 2 |  | < 2 | < 2 |  | inhibition in vivo at 1.5 % [5]: 57%
COC(=O)[C@@H](NC(=O)c1cc2c(n(CCCC#N)c1=O)CCCCCC2)C(C)C [Compound I-266] | < 2 |  | 12 | 12 |  | inhibition in vivo at 2 % [5]: 64%
CCOC(=O)C(C)(C)NC(=O)c1cc2c(n(CC3CCCCC3)c1=O)CCCCCC2 [Compound I-300] | < 2 |  | < 2 | < 2 | 41 | 
CC(C)OC(=O)C(C)(C)NC(=O)c1cc2c(n(CC3CCCCC3)c1=O)CCCCCC2 [Compound I-301] | < 2 |  | < 2 | < 2 | 39 | 
CC(C)(NC(=O)c1cc2c(n(CC3CCCCC3)c1=O)CCCCCC2)C(=O)OCC(O)CO (stereo not drawn) [Compound I-305] | < 2 |  | < 2 | < 2 | 61 | 
COCOC(=O)C(C)(C)NC(=O)c1cc2c(n(CC3CCCCC3)c1=O)CCCCCC2 [Compound I-306] | < 2 |  | < 2 | < 2 | 83 | 
O=C(N[C@H](C(=O)O)c1ccccc1)c1cc2c(n(CC3CCCCC3)c1=O)CCCCCC2 [Compound I-402] | < 2 |  |  |  |  | IC50 ([2]; inhibition of forskolin (4 μM)-stimulated cAMP formation, CHO cells expressing human CB2, read-out: Agonist activity (nM) CB2): 5.7 nM; Ki [4, 7]: 34 nM; inhibition in vivo at 3 % [5]: 59%
CCCCn1c(CCC)c(CC)cc(C(=O)NC2(C(=O)O)CCCCC2)c1=O [Compound I-411] |  |  |  |  | 80 | Ki ([1]; read-out: Binding activity (nM) CB2): 382 nM; IC50 ([2]; read-out: Agonist activity (nM) CB2): 556 nM; IC50 [3]: > 2000 nM; Ki ([4]; read-out: Binding activity (nM) CB1): > 2000 nM
CC(C)CCn1c2c(cc(C(=O)N[C@@H](C(=O)O)c3ccccc3)c1=O)CCCCCC2 [Compound I-424] | 3 | 5.9 |  |  |  | IC50 [3]: > 2000 nM; Ki [4, 7]: 357 nM; inhibition in vivo at 3 % [5]: 62%
O=C(NC(C(=O)O)c1ccco1)c1cc2c(n(CC3CCCCC3)c1=O)CCCCCC2 (stereo not drawn) [Compound I-530] | < 2 |  | 305 | 7 |  | inhibition in vivo at 2 % [5]: 74%
CCOC(=O)C1CCCCC1NC(=O)c1cc2c(n(CCCNC(C)=O)c1=O)CCCCCC2 (stereo not drawn) [II-031] | 2.5 | 9.9 |  | > 2000 |  | inhibition in vivo at 2 % [5]: 55%
